# Patent publication US20240277658A1, “NLRP3 ACTIVATORS FOR USE IN THE TREATMENT OF INFECTIOUS DISEASES OR CANCER BY ACTIVATING NLRP3 INFLAMMASOME” (ALBERT-LUDWIGS-UNIVERSITÄT FREIBURG, priority 2020, published 2024)
# Where “and” joins values, the source holds several entries; their conditions need not be identical. Equal entries are not always repeated. Structures can show the parent of a compound that is named as a salt. Where two headings read alike, the source gives them in different places.
# Experiments:
# [1] = tested on: BMDCs; assay: LDH release (lytic cell death, pyroptosis) from LPS-primed BMDCs; type: cell-based, mouse; conditions: for Average (% positive control): LDH release; for cytotoxicity at 50 µM / cytotoxicity at 25 µM / cytotoxicity at 100 µM / cytotoxicity at 5 µM / cytotoxicity at 18.75 µM / cytotoxicity at 37.5 µM / cytotoxicity at 75 µM: Mus musculus, BMDC
# Method in brief: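 Mouse BMDCs (7-9 days differentiated, GM-CSF) primed with 50 ng ml^−1 E. coli K12 LPS for 3 hours, then exposed 3 hours to compounds (50 μM unless indicated) or activators (nigericin 5 μM; R837, CL097 100 μM). Lytic death measured as LDH release by colorimetric assay, triplicate wells.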
# [2] = molecular target: T1, NLRP3 inflammasome (Mus musculus, UniProt Q8R4B8); assay: IL-1β release from LPS-primed BMDCs (ELISA) as readout of NLRP3 inflammasome activation; type: cell-based
# T1 construct: endogenous in cells; host or cells: primary mouse bone marrow-derived dendritic cells (BMDCs), LPS-primed
# Method in brief: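 NLRP3 inflammasome activation was read out as IL-1β released into the supernatant, measured by ELISA. Murine BMDCs were primed with LPS (50 ng ml^−1, 3 hours), then incubated with compounds for 3 hours, with each condition run in three technical replicates. Nigericin at 5 μM acted as the positive control activator, and IL-1β release was also expressed as a percentage of that control.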
# [3] = compound 50 μM, positive control nigericin 5 μM
# [4] = compound 50 μM, LPS-primed BMDCs, read-out: Average LDH release (% of max.)
# [5] = single replicates, compound 50 μM, LPS-primed BMDCs, read-out: LDH release (% of max.)
# [6] = IL-1β release, compound 50 μM, positive control nigericin 5 μM
# [7] = compound 50 μM, LPS-primed BMDCs
# [8] = single replicates, compound 50 μM, LPS-primed BMDCs
# T1 sequence (Q8R4B8 whole entry): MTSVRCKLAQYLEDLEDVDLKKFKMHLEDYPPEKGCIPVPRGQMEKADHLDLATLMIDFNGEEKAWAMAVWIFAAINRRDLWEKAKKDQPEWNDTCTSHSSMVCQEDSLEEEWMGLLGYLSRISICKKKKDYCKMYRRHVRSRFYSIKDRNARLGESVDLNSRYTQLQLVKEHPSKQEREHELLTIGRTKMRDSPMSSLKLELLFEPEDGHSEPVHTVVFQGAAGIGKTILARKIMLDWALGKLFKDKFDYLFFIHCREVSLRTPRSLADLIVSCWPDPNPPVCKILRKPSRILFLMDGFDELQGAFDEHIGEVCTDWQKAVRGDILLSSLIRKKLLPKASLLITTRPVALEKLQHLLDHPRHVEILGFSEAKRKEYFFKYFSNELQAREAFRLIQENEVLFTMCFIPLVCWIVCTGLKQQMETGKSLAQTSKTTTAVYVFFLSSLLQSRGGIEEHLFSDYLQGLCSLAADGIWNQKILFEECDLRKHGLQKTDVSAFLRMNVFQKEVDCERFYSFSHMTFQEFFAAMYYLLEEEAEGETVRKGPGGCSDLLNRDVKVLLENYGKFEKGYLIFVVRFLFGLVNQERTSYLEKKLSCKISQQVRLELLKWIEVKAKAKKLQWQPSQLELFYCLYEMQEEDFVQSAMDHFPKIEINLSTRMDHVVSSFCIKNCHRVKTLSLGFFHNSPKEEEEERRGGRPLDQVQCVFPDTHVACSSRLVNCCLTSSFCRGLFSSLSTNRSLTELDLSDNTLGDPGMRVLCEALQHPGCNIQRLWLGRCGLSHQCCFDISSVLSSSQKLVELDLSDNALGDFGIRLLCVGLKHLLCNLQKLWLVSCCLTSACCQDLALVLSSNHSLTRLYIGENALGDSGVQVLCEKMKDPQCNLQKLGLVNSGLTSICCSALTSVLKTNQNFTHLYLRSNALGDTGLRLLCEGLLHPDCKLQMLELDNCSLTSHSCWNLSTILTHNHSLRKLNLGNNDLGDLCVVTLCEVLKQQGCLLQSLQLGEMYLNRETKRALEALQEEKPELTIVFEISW
smiles,measurement,setting,value
"O=C(Nc1ccccc1)Nc1ccc(C(=O)N2CCC2)cc1 [L01.008, 1-[4-(azetidine-1-carbon-yl)phenyl]-3-phenylurea]",Average (% positive control),[1]; [3],13.046 % positive control
same,cytotoxicity at 50 µM,[1]; [4],9.54%
same,cytotoxicity at 50 µM,[1]; [5],11%
same,Average (% positive control),[2]; [6],4.638 % positive control
same,Average IL-1β,[2]; [7],0.332 ng/mL
same,IL-1β,[2]; [8],0.361 ng/mL and 0.324 ng/mL and 0.313 ng/mL
"O=C(NCCc1ccccc1)Nc1ccc2ncccc2c1 [EN11-07, 1-(2-phenylethyl)-3-(quinolin-6-yl)urea]",Average (% positive control),"[1]; 25 μM, positive control EN22 25 μM",27.283 % positive control
same,Average (% positive control),"[1]; 50 μM, positive control EN22 25 μM",28.451 % positive control
same,Average (% positive control),"[1]; 100 μM, positive control EN22 25 μM",26.529 % positive control
same,cytotoxicity at 25 µM,"[1]; 25 μM, EN11 series table, read-out: Average LDH release (% of max.)",13.9%
same,cytotoxicity at 25 µM,"[1]; 25 μM, individual replicate values, EN11 series table, read-out: LDH release (% of max.)",13.4%
same,cytotoxicity at 50 µM,"[1]; 50 μM, EN11 series table, read-out: Average LDH release (% of max.)",14.5%
same,cytotoxicity at 50 µM,"[1]; 50 μM, individual replicate values, EN11 series table, read-out: LDH release (% of max.)",14.4%
same,cytotoxicity at 100 µM,"[1]; 100 μM, individual replicate values, read-out: LDH release (% of max.)",11.4%
same,cytotoxicity at 100 µM,"[1]; 100 μM, read-out: Average LDH release (% of max.)",13.5%
same,Average IL-1β,"[2]; 25 μM, EN11 series table",0.000 ng/mL
same,IL-1β,"[2]; 25 μM, individual replicate values, EN11 series table",0.000 ng/mL
same,Average IL-1β,"[2]; 50 μM, EN11 series table",0.000 ng/mL
same,IL-1β,"[2]; 50 μM, individual replicate values, EN11 series table",0.000 ng/mL
same,Average IL-1β,[2]; 100 μM,0.053 ng/mL
same,IL-1β,"[2]; 100 μM, individual replicate values",0.059 ng/mL and 0.052 ng/mL and 0.049 ng/mL
same,Average (% positive control),"[2]; IL-1β, 25 μM, positive control EN22 25 μM",0.000 % positive control
same,Average (% positive control),"[2]; IL-1β, 50 μM, positive control EN22 25 μM",0.000 % positive control
same,Average (% positive control),"[2]; IL-1β, 100 μM, positive control EN22 25 μM",3.621 % positive control
"Cc1cccc(NC(=O)Nc2ccccc2)c1 [L01.077, 3-(3-methylphenyl)-1-phenylurea]",Average (% positive control),[1]; [3],7.980 % positive control
same,cytotoxicity at 50 µM,[1]; [4],5.84%
same,cytotoxicity at 50 µM,[1]; [5],5.28%
same,Average (% positive control),[2]; [6],1.368 % positive control
same,Average IL-1β,[2]; [7],0.098 ng/mL
same,IL-1β,[2]; [8],0.067 ng/mL and 0.165 ng/mL and 0.062 ng/mL
"CO[C@@H]1C[C@@H](C[C@H]2CC[C@H](C)[C@H]([C@@H](C)C(=O)O)O2)O[C@]2(O[C@](C)([C@H]3CC[C@@](C)([C@@H]4O[C@@H]([C@H]5O[C@@](O)(CO)[C@H](C)C[C@@H]5C)C[C@@H]4C)O3)C[C@H]2C)[C@@H]1C [Nigericin, Nigericin sodium salt, reference compound]",Average (% positive control),"[1]; 5 μM, positive control nigericin 5 μM",100.000 % positive control
same,cytotoxicity at 5 µM,"[1]; 5 μM, LPS-primed BMDCs, read-out: Average LDH release (% of max.)",73.2%
same,cytotoxicity at 5 µM,"[1]; section 1.3, 5 μM, read-out: Average LDH release (% of max.)",53.7%
same,cytotoxicity at 5 µM,"[1]; single replicates, 5 μM, LPS-primed BMDCs, read-out: LDH release (% of max.)",61.9%
same,Average (% positive control),"[1]; section 1.3, 5 μM, positive control nigericin 5 μM",100.000 % positive control
same,Average IL-1β,"[2]; 5 μM, LPS-primed BMDCs",7.168 ng/mL
same,Average (% positive control),"[2]; IL-1β release, 5 μM, positive control nigericin 5 μM",100.000 % positive control
same,Average IL-1β,"[2]; section 1.3, 5 μM",3.151 ng/mL
same,Average (% positive control),"[2]; section 1.3, IL-1β release, 5 μM, positive control nigericin 5 μM",100.000 % positive control
same,IL-1β,"[2]; section 1.3, single replicates, 5 μM, sodium salt",3.007 ng/mL and 3.127 ng/mL and 3.318 ng/mL
same,IL-1β,"[2]; single replicates, 5 μM, LPS-primed BMDCs, sodium salt",6.834 ng/mL and 6.400 ng/mL and 7.872 ng/mL and 6.518 ng/mL and 7.890 ng/mL and 7.496 ng/mL
"O=C(NCc1nc(-c2cccnc2)no1)Nc1ccc([N+](=O)[O-])cc1Cl [L01.042, 1-(2-chloro-4-nitrophen-yl)-3-{[3-(pyridin-3-yl)-1,2,4-oxadiazol-5-yl]-methyl}urea]",Average (% positive control),[1]; [3],9.993 % positive control
same,cytotoxicity at 50 µM,[1]; [4],7.31%
same,cytotoxicity at 50 µM,[1]; [5],7.09%
same,Average (% positive control),[2]; [6],0.826 % positive control
same,Average IL-1β,[2]; [7],0.059 ng/mL
same,IL-1β,[2]; [8],0.060 ng/mL and 0.069 ng/mL and 0.048 ng/mL
"Cc1cc(NC(=O)Nc2ccccc2)ccc1N1CCCC1 [L01.025, 3-[3-methyl-4-(pyrrol-idin-1-yl)phenyl]-1-phenylurea]",Average (% positive control),[1]; [3],19.631 % positive control
same,cytotoxicity at 50 µM,[1]; [4],14.4%
same,cytotoxicity at 50 µM,[1]; [5],15%
same,Average (% positive control),[2]; [6],5.130 % positive control
same,Average IL-1β,[2]; [7],0.368 ng/mL
same,IL-1β,[2]; [8],0.333 ng/mL and 0.280 ng/mL and 0.490 ng/mL
"O=C(Nc1cccc(Cl)c1)Nc1ccc([N+](=O)[O-])cc1Cl [TCMDC-143175, 3-(2-chloro-4-nitrophen-yl)-1-(3-chlorophenyl)-urea]",cytotoxicity at 18.75 µM,"[1]; section 1.4, 18.75 μM, read-out: Average LDH release (% of max.)",35.5%
same,cytotoxicity at 37.5 µM,"[1]; section 1.4, 37.5 μM, read-out: Average LDH release (% of max.)",74.7%
same,cytotoxicity at 75 µM,"[1]; section 1.4, 75 μM, read-out: Average LDH release (% of max.)",91.4%
same,cytotoxicity at 18.75 µM,"[1]; section 1.4, single replicates, 18.75 μM, read-out: LDH release (% of max.)",35.3%
same,cytotoxicity at 37.5 µM,"[1]; section 1.4, single replicates, 37.5 μM, read-out: LDH release (% of max.)",72.8%
same,cytotoxicity at 75 µM,"[1]; section 1.4, single replicates, 75 μM, read-out: LDH release (% of max.)",91.5%
same,Average (% positive control),"[1]; section 1.4, 18.75 μM, positive control EN22 18.75 μM",49.754 % positive control
same,Average (% positive control),"[1]; section 1.4, 37.5 μM, positive control EN22 18.75 μM",104.647 % positive control
same,Average (% positive control),"[1]; section 1.4, 75 μM, positive control EN22 18.75 μM",128.113 % positive control
same,Average IL-1β,[2]; 18.75 μM,0.105 ng/mL
same,IL-1β,"[2]; 18.75 μM, individual replicate values",0.102 ng/mL and 0.104 ng/mL and 0.110 ng/mL
same,Average IL-1β,[2]; 37.5 μM,0.291 ng/mL
same,IL-1β,"[2]; 37.5 μM, individual replicate values",0.309 ng/mL and 0.275 ng/mL and 0.290 ng/mL
same,Average IL-1β,[2]; 75 μM,0.417 ng/mL
same,IL-1β,"[2]; 75 μM, individual replicate values",0.423 ng/mL and 0.381 ng/mL and 0.446 ng/mL
same,Average (% positive control),"[2]; IL-1β, 18.75 μM, positive control EN22 18.75 μM",1.666 % positive control
same,Average (% positive control),"[2]; IL-1β, 37.5 μM, positive control EN22 18.75 μM",4.609 % positive control
same,Average (% positive control),"[2]; IL-1β, 75 μM, positive control EN22 18.75 μM",6.592 % positive control
"Cc1ccc(NC(=O)Nc2ccccc2)cc1NC(=O)C(F)F [L01.116, 2,2-difluoro-N-{2-meth-yl-5-[(phenylcarbamo-yl)amino]phenyl}acet-amide]",Average (% positive control),[1]; [3],24.685 % positive control
same,cytotoxicity at 50 µM,[1]; [4],18.1%
same,cytotoxicity at 50 µM,[1]; [5],18%
same,Average (% positive control),[2]; [6],16.099 % positive control
same,Average IL-1β,[2]; [7],1.154 ng/mL
same,IL-1β,[2]; [8],1.107 ng/mL and 1.192 ng/mL and 1.163 ng/mL
"N#Cc1ccc(NC(=O)NC(CO)c2nc(-c3ccccc3)no2)cc1 (centres unmarked) [L01.112, 1-(4-cyanophenyl)-3-[2-hydroxy-1-(3-phenyl-1,2,4-oxadiazol-5-yl)-ethyl]urea]",Average (% positive control),[1]; [3],10.010 % positive control
same,cytotoxicity at 50 µM,[1]; [4],7.32%
same,cytotoxicity at 50 µM,[1]; [5],7.96%
same,Average (% positive control),[2]; [6],0.955 % positive control
same,Average IL-1β,[2]; [7],0.068 ng/mL
same,IL-1β,[2]; [8],0.075 ng/mL and 0.069 ng/mL and 0.061 ng/mL
